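Exposure lasted 48 hours, with cells grown in 96-well plates and compounds tested at five concentrations. At the GI50, growth is halved.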 The source made the active and inactive calls. No stated cut-off is given here; in the data, active = GI50 up to about 1.1 µM and inactive = higher.
Experiments:
Assay in all cases: growth of human tumour cells (NCI), 48 h
NCI-H522 = test system: NCI-H522
SF-295 = test system: SF-295
SF-539 = test system: SF-539
NCI-H460 = test system: NCI-H460
SK-MEL-28 = test system: SK-MEL-28
SK-MEL-2 = test system: SK-MEL-2
MOLT-4 = test system: MOLT-4
MDA-MB-231 = test system: MDA-MB-231
CAKI-1 = test system: CAKI-1
MDA-N = test system: MDA-N
SK-OV-3 = test system: SK-OV-3
SW-620 = test system: SW-620
RPMI-8226 = test system: RPMI-8226
UACC-62 = test system: UACC-62
MCF7 = test system: MCF7
DU-145 = test system: DU-145
CCRF-CEM = test system: CCRF-CEM
SK-MEL-5 = test system: SK-MEL-5
UO-31 = test system: UO-31
MDA-MB-435 = test system: MDA-MB-435

Row | SMILES | GI50 (NCI-H522) | GI50 (SF-295) | GI50 (SF-539) | GI50 (NCI-H460) | GI50 (SK-MEL-28) | GI50 (SK-MEL-2) | GI50 (MOLT-4) | GI50 (MDA-MB-231) | GI50 (CAKI-1) | GI50 (MDA-N) | GI50 (SK-OV-3) | GI50 (SW-620) | GI50 (RPMI-8226) | GI50 (UACC-62) | GI50 (MCF7) | GI50 (DU-145) | GI50 (CCRF-CEM) | GI50 (SK-MEL-5) | GI50 (UO-31) | GI50 (MDA-MB-435)
1 | C=C[C@@]1(C)CC(=O)[C@]2(O)[C@@]3(C)[C@@H](O)CCC(C)(C)[C@@H]3[C@H](O)[C@@H](OC(C)=O)[C@@]2(C)O1 | > 100 µM (inactive) | > 100 µM (inactive) | > 100 µM (inactive) | > 100 µM (inactive) | > 100 µM (inactive) | > 100 µM (inactive) | 30.2 µM (inactive) | 6.18 µM (inactive) | 27.1 µM (inactive) | > 100 µM (inactive) | 95.1 µM (inactive) | > 100 µM (inactive) | 18.7 µM (inactive) | > 100 µM (inactive) | 22.1 µM (inactive) | > 100 µM (inactive) | > 100 µM (inactive) | > 100 µM (inactive) | 60.4 µM (inactive) | > 100 µM (inactive)
2 | O=C1CSC(c2cccs2)N1c1nc2cc3sc(N4C(=O)CSC4c4cccs4)nc3cc2s1 (stereo not given) | 13.2 µM (inactive) | > 50 µM (inactive) | 0.753 µM (active) | 3.04 µM (inactive) | > 50 µM (inactive) | > 50 µM (inactive) | 6.4 µM (inactive) | > 50 µM (inactive) | 47.4 µM (inactive) | > 50 µM (inactive) | > 50 µM (inactive) | 16.2 µM (inactive) | > 50 µM (inactive) | > 50 µM (inactive) | 15.9 µM (inactive) | > 50 µM (inactive) | 25.2 µM (inactive) | 22.5 µM (inactive) | 30.9 µM (inactive) | > 50 µM (inactive)
3 | O=C(O)c1c2c(c(O)c3c1CN(C1CCCCC1)CO3)OCN(C1CCCCC1)C2 | 29.1 µM (inactive) | 92.7 µM (inactive) | 37 µM (inactive) | 19 µM (inactive) | > 100 µM (inactive) | > 100 µM (inactive) | 18.5 µM (inactive) | 46.7 µM (inactive) | > 100 µM (inactive) | > 100 µM (inactive) | > 100 µM (inactive) | 22 µM (inactive) | 40.5 µM (inactive) | > 100 µM (inactive) | 20.1 µM (inactive) | > 100 µM (inactive) | 10.4 µM (inactive) | > 100 µM (inactive) | > 100 µM (inactive) | 58.1 µM (inactive)
4 | CC(=O)Nc1ccc2c3c(cc(O)c2c1)N(C(=O)CCCCC(=O)N1CC(CCl)c2c1cc(O)c1cc(NC(C)=O)ccc21)CC3CCl (stereo not given) | 0.0575 µM (active) | 0.151 µM (active) | 0.0527 µM (active) | < 0.01 µM (active) | 0.27 µM (active) | 0.144 µM (active) | < 0.01 µM (active) | 0.29 µM (active) | 0.745 µM (active) | 0.174 µM (active) | 0.34 µM (active) | 0.518 µM (active) | 0.169 µM (active) | 0.0154 µM (active) | < 0.01 µM (active) | < 0.01 µM (active) | < 0.01 µM (active) | 0.129 µM (active) | 3.53 µM (inactive) | 0.186 µM (active)
5 | c1ccc(NNC2=NCCN2)cc1 | > 100 µM (inactive) | 2.75 µM (inactive) | > 100 µM (inactive) | > 100 µM (inactive) | > 100 µM (inactive) | > 100 µM (inactive) | > 100 µM (inactive) | > 100 µM (inactive) | > 100 µM (inactive) | > 100 µM (inactive) | > 100 µM (inactive) | > 100 µM (inactive) | > 100 µM (inactive) | > 100 µM (inactive) | > 100 µM (inactive) | > 100 µM (inactive) | > 100 µM (inactive) | > 100 µM (inactive) | > 100 µM (inactive) | > 100 µM (inactive)
6 | COc1cc(-c2ccccc2N)c2cccnc2c1OC | 3.59 µM (inactive) | 1.54 µM (inactive) | 6.41 µM (inactive) | 11.1 µM (inactive) | 17.9 µM (inactive) | 12.9 µM (inactive) | 1.44 µM (inactive) | 6.22 µM (inactive) | 2.63 µM (inactive) | 6.47 µM (inactive) | 9.57 µM (inactive) | 2.92 µM (inactive) | 3.4 µM (inactive) | 11.7 µM (inactive) | 3.84 µM (inactive) | 2.89 µM (inactive) | 3.56 µM (inactive) | 13 µM (inactive) | 3.8 µM (inactive) | 8.17 µM (inactive)
7 | Cc1n(-c2ccccc2)c2c([n+]1Cc1ccc([N+](=O)[O-])cc1)C(=O)c1ccccc1C2=O | 0.579 µM (active) | 5.45 µM (inactive) | 1.97 µM (inactive) | 3.78 µM (inactive) | 1.81 µM (inactive) | 1.48 µM (inactive) | 0.59 µM (active) | 1.59 µM (inactive) | 15.7 µM (inactive) | 1.77 µM (inactive) | 4.3 µM (inactive) | 2.12 µM (inactive) | 0.845 µM (active) | 2.03 µM (inactive) | 1.37 µM (inactive) | 1.85 µM (inactive) | 1.82 µM (inactive) | 1.85 µM (inactive) | 13.1 µM (inactive) | 1.74 µM (inactive)
8 | Cc1cc2cc3c(cc2c(-c2ccc([N+](=O)[O-])cc2)n1)OCO3 | 14.4 µM (inactive) | 50 µM (inactive) | 22.6 µM (inactive) | 29.7 µM (inactive) | 41.1 µM (inactive) | 39.1 µM (inactive) | 22.5 µM (inactive) | 18.6 µM (inactive) | 38.4 µM (inactive) | 54.2 µM (inactive) | 25.6 µM (inactive) | 29.4 µM (inactive) | 35.8 µM (inactive) | 20.6 µM (inactive) | 37.8 µM (inactive) | 62.8 µM (inactive) | 31.6 µM (inactive) | 17.4 µM (inactive) | 13.5 µM (inactive) | 65.9 µM (inactive)
9 | Fc1cc(C2=C[C@H](c3ccc(Cl)cc3)NC(=S)N2)c(Cl)cc1Cl | 34 µM (inactive) | 28.2 µM (inactive) | > 100 µM (inactive) | 34 µM (inactive) | > 100 µM (inactive) | 27.2 µM (inactive) | 15.6 µM (inactive) | 23.7 µM (inactive) | 43 µM (inactive) | 47.4 µM (inactive) | > 100 µM (inactive) | 70.6 µM (inactive) | 14.9 µM (inactive) | 57 µM (inactive) | 31.2 µM (inactive) | 62.8 µM (inactive) | 28.9 µM (inactive) | 11.6 µM (inactive) | 42.2 µM (inactive) | 43.9 µM (inactive)
10 | Cc1cc(C)c(C[C@H]2COC(=O)[C@]2(O)Cc2c(C)cc(C)cc2C)c(C)c1 | 18.7 µM (inactive) | 16.9 µM (inactive) | 23.9 µM (inactive) | 16.8 µM (inactive) | 24.7 µM (inactive) | 23.1 µM (inactive) | 26.7 µM (inactive) | 16.7 µM (inactive) | 18.6 µM (inactive) | 19.8 µM (inactive) | 17.9 µM (inactive) | 20.9 µM (inactive) | 25.2 µM (inactive) | 13.7 µM (inactive) | 18.1 µM (inactive) | 15.2 µM (inactive) | 31.7 µM (inactive) | 17 µM (inactive) | 19.6 µM (inactive) | 18.3 µM (inactive)
11 | CC[C@]12C=CCN3CC[C@@]4(c5cc(Br)c(OC)cc5N(C)[C@H]4[C@@](O)(C(=O)N[C@@H](Cc4ccc(O)cc4)C(=O)OC)[C@@H]1O)[C@@H]32 | 17.7 µM (inactive) | 19.3 µM (inactive) | 19.7 µM (inactive) | 18.2 µM (inactive) | > 100 µM (inactive) | 20.1 µM (inactive) | 14.2 µM (inactive) | 11 µM (inactive) | 18.7 µM (inactive) | 20 µM (inactive) | 74.5 µM (inactive) | 32.9 µM (inactive) | 15.6 µM (inactive) | 17.6 µM (inactive) | 23.1 µM (inactive) | 55.1 µM (inactive) | 21.6 µM (inactive) | 17.6 µM (inactive) | 27.2 µM (inactive) | 16.4 µM (inactive)
12 | CN(C)CC/C=C1\c2ccccc2Sc2ccc(Cl)cc21 | 12.6 µM (inactive) | 15.9 µM (inactive) | 19 µM (inactive) | 11.7 µM (inactive) | 6.21 µM (inactive) | 16.1 µM (inactive) | 11.5 µM (inactive) | 13.6 µM (inactive) | 8.11 µM (inactive) | 12.7 µM (inactive) | 16.3 µM (inactive) | 16.3 µM (inactive) | 3.78 µM (inactive) | 13.6 µM (inactive) | 15.1 µM (inactive) | 15.4 µM (inactive) | 8.2 µM (inactive) | 14 µM (inactive) | 9.4 µM (inactive) | 10.3 µM (inactive)
13 | Brc1ccc2c(-c3csc(-c4c[nH]c5ccc(Br)cc45)n3)c[nH]c2c1 | 2.11 µM (inactive) | 3.19 µM (inactive) | 3.87 µM (inactive) | 2.44 µM (inactive) | 7.59 µM (inactive) | 5.35 µM (inactive) | 2.84 µM (inactive) | 3.42 µM (inactive) | 3.01 µM (inactive) | 5.15 µM (inactive) | 11.2 µM (inactive) | 3.65 µM (inactive) | 3.44 µM (inactive) | 3.18 µM (inactive) | 3.82 µM (inactive) | 3.86 µM (inactive) | 3.79 µM (inactive) | 3.65 µM (inactive) | 3.82 µM (inactive) | 4.46 µM (inactive)
14 | CCOP(=O)(OCC)C(Nc1ccc(F)cc1)c1cccc([N+](=O)[O-])c1 (stereo not given) | 63.1 µM (inactive) | > 100 µM (inactive) | > 100 µM (inactive) | 65.9 µM (inactive) | > 100 µM (inactive) | 49.7 µM (inactive) | 37.2 µM (inactive) | 71.9 µM (inactive) | > 100 µM (inactive) | > 100 µM (inactive) | > 100 µM (inactive) | > 100 µM (inactive) | 76.9 µM (inactive) | 54.8 µM (inactive) | > 100 µM (inactive) | > 100 µM (inactive) | 62.4 µM (inactive) | 83.9 µM (inactive) | 40.6 µM (inactive) | > 100 µM (inactive)
